Patent publication US10080756B2, “Combination methods for treating cancers” (Gilead Sciences, Inc., priority 2014, dated 2018)
Where two headings read alike, the source gives them in different places.

What was measured:
[1] = system: DHL-10; test: Cell Titer Glo viability assay, DHL-10, alone or with compound of Formula I (Example 3); conditions: for Fold shift: EC50 alone vs +300 nM Compound of Formula I
Protocol: All procedures were performed at Gilead Sciences, Inc. in Branford, Conn. […] Compound plates were diluted 1:100 in RPMI without serum or additives but containing either 1% DMSO or 3 μM of the compound of Formula I creating a 10× stock. The DLBCL cell line, DHL-10 was plated at 10,000 cells per well in RPMI supplemented with 10% FBS and 100 U/L penicillin-streptomycin. To each well containing cells, 11 μl of 10× compound mixture in serum-free media was added in a final concentration of 0.2% DMSO and cells were incubated at 37° C. in 5% CO2 for 72 hours. Cell viability was assessed using Cell Titer Glo (CTG, Promega, Madison, Wis.) following the manufacturer's protocol on an Envision plate reader (Perkin Elmer, Waltham, Mass.). CTG signals were recorded for individual compound treatments and combinations. EC50 values were determined using a four parameter variable slope model with GraphPad Prism 6.0 software.

[2] = system: KMS-11; test: Cell Titer Glo viability assay, KMS-11; type: cell-based; conditions: Homo sapiens, read-out: Inhibition of Viability, EC50
Protocol: (§1) All procedures were performed at Gilead Sciences, Inc. in Branford, The compound of formula (I), cyclophosphamide, doxorubicin and vincristine sulfate were dissolved in DMSO to prepare stock solutions that were serially diluted three-fold in DMSO in a 96 well plate format at 1000× so the final starting assay concentrations tested would be 10 μM, 200 μM, 10 μM, and 1 μM respectively, for each compound. Compound plates were diluted 1:100 in RPMI without serum or additives creating a 10× stock. Cells were seeded into a 96-well plate at 10,000-20,000 cells per well in 100 μl of growth media appropriate to the cell line supplemented with 100 U/L penicillin-streptomycin. OCI-Ly3, OCI-Ly4 and OCI-Ly7 were grown in Iscove's+20% FBS, OCI-Ly19 was grown in alphaMEM+20% FBS, and all other cell lines were grown in RPMI+10% FBS. To each well, 11 μl of 10× compound was added in a final concentration of 0.1% DMSO and cells were incubated at 37° C. in 5% CO2 for 72 hours. Cell viability was assessed with Cell Titer Glo (Promega, Madison, Wis.) following the manufacturer's protocol on an Envision plate reader (Perkin Elmer, Waltham, Mass.). EC50 values were determined using a four parameter variable slope model with GraphPad Prism 6.0 software. All EC50 values represent mean values of from duplicate dose response curves.

[3] = system: WSU-NHL; test: Cell Titer Glo viability assay, WSU-NHL; type: cell-based; conditions: Homo sapiens, read-out: Inhibition of Viability, EC50
Protocol: as §1

[4] = system: OPM-2; test: Cell Titer Glo viability assay, OPM-2; type: cell-based; conditions: Homo sapiens, read-out: Inhibition of Viability, EC50
Protocol: as §1

[5] = system: OCI-LY19; test: Cell Titer Glo viability assay, OCI-LY19; type: cell-based; conditions: Homo sapiens, read-out: Inhibition of Viability, EC50
Protocol: as §1

[6] = system: Karpas 422; test: Cell Titer Glo viability assay, Karpas 422; type: cell-based; conditions: Homo sapiens, read-out: Inhibition of Viability, EC50
Protocol: as §1

[7] = system: WSU-FSCCL; test: Cell Titer Glo viability assay, WSU-FSCCL; type: cell-based; conditions: read-out: Inhibition of Viability, EC50
Protocol: as §1

[8] = system: OCI-LY7; test: Cell Titer Glo viability assay, OCI-LY7; type: cell-based; conditions: Homo sapiens, read-out: Inhibition of Viability, EC50
Protocol: as §1

[9] = system: SU-DHL-4; test: Cell Titer Glo viability assay, SU-DHL-4; type: cell-based; conditions: Homo sapiens, read-out: Inhibition of Viability, EC50
Protocol: as §1

[10] = system: MM1.S; test: Cell Titer Glo viability assay, MM1.S; type: cell-based; conditions: Homo sapiens, read-out: Inhibition of Viability, EC50
Protocol: as §1

[11] = system: Mino; test: Cell Titer Glo viability assay, Mino; type: cell-based; conditions: Homo sapiens, read-out: Inhibition of Viability, EC50
Protocol: as §1

[12] = system: 10 diffuse large B-cell lymphoma (DLBCL), 4 multiple myeloma (MM), 2 follicular lymphoma (FL), and 1 mantle cell lymphoma (MCL) cell lines; test: Cell Titer Glo viability assay, summary over all cell lines tested; type: cell-based; conditions: at concentrations <10000 nM
Protocol: as §1

[13] = system: RPMI-8266; test: Cell Titer Glo viability assay, RPMI-8266; type: cell-based; conditions: read-out: Inhibition of Viability, EC50
Protocol: as §1

[14] = system: Pfeiffer; test: Cell Titer Glo viability assay, Pfeiffer; type: cell-based; conditions: Homo sapiens, read-out: Inhibition of Viability, EC50
Protocol: as §1

[15] = system: SU-DHL-6; test: Cell Titer Glo viability assay, SU-DHL-6; type: cell-based; conditions: Homo sapiens, read-out: Inhibition of Viability, EC50
Protocol: as §1

[16] = system: SU-DHL-10; test: Cell Titer Glo viability assay, SU-DHL-10; type: cell-based; conditions: Homo sapiens, read-out: Inhibition of Viability, EC50
Protocol: as §1

[17] = system: OCI-LY4; test: Cell Titer Glo viability assay, OCI-LY4; type: cell-based; conditions: read-out: Inhibition of Viability, EC50
Protocol: as §1

[18] = system: SU-DHL-2; test: Cell Titer Glo viability assay, SU-DHL-2; type: cell-based; conditions: Homo sapiens, read-out: Inhibition of Viability, EC50
Protocol: as §1

[19] = system: OCI-LY3; test: Cell Titer Glo viability assay, OCI-LY3; type: cell-based; conditions: Homo sapiens, read-out: Inhibition of Viability, EC50
Protocol: as §1

[20] = Cell Titer Glo viability assay, summary over all cell lines tested; type: cell-based; conditions: B-cell; range over the 17 cell lines of Table 1; read-out: EC50 values to inhibit cell viability, range over cell lines
Protocol: as §1

[21] = in vivo; cited from earlier work
[22] = Homo sapiens, 72 h, read-out: Inhibition of cell viability EC50, No Compound of Formula I
[23] = read-out: Inhibition of cell viability EC50, +300 nM Compound of Formula I, DHL-10, in combination with 300 nM compound of Formula I, 72 hours

COc1cc2c(c(OC)c1OC)-c1ccc(OC)c(=O)cc1[C@@H](NC(C)=O)CC2 [Colchicine, colchicine]
Fold shift ([1]; DHL-10): 1.0 | EC50 [1, 22]: 13.5 nM | EC50 [1, 23]: 14.2 nM

COc1ccc(/C=C\c2cc(OC)c(OC)c(OC)c2)cc1O [Combretastatin A4, combretastatin A4]
Fold shift ([1]; DHL-10): 1.2 | EC50 [1, 23]: 4.8 nM | EC50 ([1]; read-out: Inhibition of cell viability EC50, No Compound of Formula I, DHL-10, compound alone, 72 hours): 5.9 nM

O=P1(N(CCCl)CCCl)NCCCO1 (centres unmarked) [Cyclophosphamide, cyclophosphamide]
EC50 ([2]; KMS-11, 72 h): > 10000 nM | EC50 ([3]; 72 h): > 10000 nM | EC50 ([4]; OPM-2, 72 h): > 10000 nM | EC50 ([5]; OCI-LY19, 72 h): > 10000 nM | EC50 ([6]; KARPAS-422, 72 h): > 10000 nM | EC50 ([7]; 72 h): > 10000 nM | EC50 ([8]; OCI-Ly7, 72 h): > 10000 nM | EC50 ([9]; SU-DHL-4, 72 h): > 10000 nM | EC50 ([10]; 72 h): > 10000 nM | EC50 ([11]; MINO, 72 h): > 10000 nM | inhibition of cell viability in any of the cell lines tested [12]: did not show inhibition cell viability | EC50 ([13]; RPMI8266, 72 h): > 10000 nM | EC50 ([14]; 72 h): > 10000 nM | EC50 ([15]; SU-DHL-6, 72 h): > 10000 nM | EC50 ([16]; SU-DHL10, 72 h): > 10000 nM | EC50 ([17]; 72 h): > 10000 nM | EC50 ([18]; SU-DHL-2, 72 h): > 10000 nM | EC50 ([19]; OCI-Ly3, 72 h): > 10000 nM

COc1cccc2c1C(=O)c1c(O)c3c(c(O)c1C2=O)C[C@@](O)(C(=O)CO)C[C@@H]3O[C@H]1C[C@H](N)[C@H](O)[C@H](C)O1 [Doxorubicin, doxorubicin]
EC50 ([2]; KMS-11, MM, single agent, 72 hours): 469 nM | EC50 ([3]; FL, single agent, 72 hours): 128 nM | EC50 [1, 22]: 152 nM | EC50 [1, 23]: 161 nM | EC50 ([4]; OPM-2, MM, single agent, 72 hours): 557 nM | EC50 ([5]; OCI-LY19, DLBCL, single agent, 72 hours): 3.1 nM | EC50 ([6]; Karpas 422, DLBCL, single agent, 72 hours): 305 nM | EC50 ([7]; WSU-FSCCL, FL, single agent, 72 hours): 52 nM | EC50 ([8]; OCI-LY7, DLBCL, single agent, 72 hours): 199 nM | EC50 ([9]; SU-DHL-4, DLBCL, single agent, 72 hours): 215 nM | EC50 ([10]; MM, single agent, 72 hours): 66 nM | EC50 ([11]; Mino, MCL, single agent, 72 hours): 114 nM | EC50 [20]: 3.1 to 557 nM | EC50 ([13]; RPMI8266, RPMI-8266, MM, single agent, 72 hours): 176 nM | EC50 ([14]; DLBCL, single agent, 72 hours): 198 nM | EC50 ([15]; SU-DHL-6, DLBCL, single agent, 72 hours): 125 nM | EC50 ([16]; SU-DHL10, SU-DHL-10, DLBCL, single agent, 72 hours): 195 nM | EC50 ([17]; OCI-LY4, DLBCL, single agent, 72 hours): 37 nM | EC50 ([18]; SU-DHL-2, DLBCL, single agent, 72 hours): 216 nM | EC50 ([19]; OCI-LY3, DLBCL, single agent, 72 hours): 26 nM

CC(=O)O[C@H]1C(=O)[C@@]2(C)[C@H]([C@H](OC(=O)c3ccccc3)[C@]3(O)C[C@H](OC(=O)[C@H](O)[C@@H](NC(=O)c4ccccc4)c4ccccc4)C(C)=C1C3(C)C)[C@]1(OC(C)=O)CO[C@@H]1C[C@@H]2O [Taxol, taxol]
EC50 [1, 22]: 7.1 nM | EC50 [1, 23]: 5.6 nM

CC[C@]1(O)C[C@@H]2CN(CCc3c([nH]c4ccccc34)[C@@](C(=O)OC)(c3cc4c(cc3OC)N(C)[C@H]3[C@@](O)(C(N)=O)[C@H](O)[C@]5(CC)C=CCN6CC[C@]43[C@@H]65)C2)C1 [Vindesine, vindesine]
serum half-life [21]: 24 h
